Results taken from US8278337B2, “Substituted pyridines that are JNK inhibitors” (Merck Sharp & Dohme, priority 2006, dated 2012).
Several values for one entry are separate records, joined by “and”; a condition that tells them apart may be missing. Equal values may be shown once. Read-outs that look alike come from different tables or passages of the source.

Assays:
Assay type in all cases: biochemical
JNK3 = JNK3 (Homo sapiens, UniProt P53779); test: DELFIA kinase assay, JNK3
Procedure: (§1) Assay DELFIA (Dissociation Enhanced Lanthanide Fluorescence Immuno-Assay) Assay:
(§2) Before initiation of kinase reactions, compounds were pre-incubated with the enzyme for 10 minutes. Pre-incubation reactions contained 50 mM HEPES pH 7.3, 10 mM MgCl2, 1 mM DTT, 75 mM NaCl, 1 mM EDTA, 1 mM EGTA, 0.01% CHAPS, 2 nM JNK1, 6 ug/mL biotinylated GST-ATF2, 0.1 mg/ml BSA, 5% DMSO and 0-100 μM compound in a total volume of 40 μL. After a 10 minute room temperature pre-incubation, 10 μL of 35 μM ATP was added to start the reaction (final concentration of ATP=7 uM). Reactions were incubated at room temperature for 30 minutes. A small aliquot (10 uL) was taken and quenched by adding into 190 uL of DELFIA Assay buffer containing 100 mM EDTA. The amount of phosphate transferred to biotinylated GST-ATF2 was measured using the Dissociation Enhanced Lanthanide Fluorescence Immuno-assay (DELFIA) from Perkin Elmer according to manufacturers protocol. Briefly, biotinylated GST-ATF2 was captured on streptavidin coated plates for 1 hour, washed twice, then incubated for 1 hour with a 1:1000 dilution of rabbit-anti-phospho-ATF2 antibody and a 1:3500 dilution of Europium-labeled anti-rabbit secondary antibody. Free antibody was removed with six washes, Europium was dissociated from the antibody, and Europium fluorescence was measured using an excitation wavelength of 340 nm and an emission wavelength of 615 nm. JNK2 and JNK3 kinase reactions were carried out similarly, with the exception that the final concentration of ATP was 4 uM and 2 uM, respectively.

JNK1 = JNK1 (Homo sapiens, UniProt P45983); test: DELFIA kinase assay, JNK1
JNK1, sequence (P45983 whole entry, species assumed): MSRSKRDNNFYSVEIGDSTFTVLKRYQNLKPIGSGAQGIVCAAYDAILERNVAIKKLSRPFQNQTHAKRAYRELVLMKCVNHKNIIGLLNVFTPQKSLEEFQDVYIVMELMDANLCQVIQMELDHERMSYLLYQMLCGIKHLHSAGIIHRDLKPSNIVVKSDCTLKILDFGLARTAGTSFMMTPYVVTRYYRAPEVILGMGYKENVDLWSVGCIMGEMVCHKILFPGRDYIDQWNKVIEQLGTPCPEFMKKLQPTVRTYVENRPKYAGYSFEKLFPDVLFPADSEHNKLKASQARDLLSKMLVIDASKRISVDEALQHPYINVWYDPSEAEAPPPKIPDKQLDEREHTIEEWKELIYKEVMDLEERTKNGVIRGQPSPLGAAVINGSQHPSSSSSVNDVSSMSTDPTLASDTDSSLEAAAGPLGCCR
In short: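 Enzyme (2 nM JNK1) was preincubated 10 min with 0–100 μM compound in HEPES pH 7.3 with 5% DMSO, then reacted 30 min at room temperature with biotinylated GST-ATF2 (6 ug/mL). Final ATP was 7 uM for JNK1, 4 uM for JNK2 and 2 uM for JNK3. Phospho-ATF2 was detected by DELFIA europium fluorescence (ex 340, em 615 nm).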

JNK2 = JNK2 (Homo sapiens, UniProt P45984); test: DELFIA kinase assay, JNK2
JNK2, sequence (P45984 whole entry, species assumed): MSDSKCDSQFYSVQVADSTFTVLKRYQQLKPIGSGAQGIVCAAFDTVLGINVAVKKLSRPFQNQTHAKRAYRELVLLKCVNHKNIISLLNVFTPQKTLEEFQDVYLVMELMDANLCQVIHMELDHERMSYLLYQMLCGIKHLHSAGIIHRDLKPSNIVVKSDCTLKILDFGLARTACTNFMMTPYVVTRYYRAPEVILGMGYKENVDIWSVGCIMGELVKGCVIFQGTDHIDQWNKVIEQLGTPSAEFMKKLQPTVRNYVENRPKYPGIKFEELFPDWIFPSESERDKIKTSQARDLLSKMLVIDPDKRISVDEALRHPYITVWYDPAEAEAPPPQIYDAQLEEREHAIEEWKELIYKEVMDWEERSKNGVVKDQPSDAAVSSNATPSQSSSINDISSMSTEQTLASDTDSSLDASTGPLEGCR
Procedure: as §1, §2

[1] = DELFIA assay, 2 nM JNK1, 7 uM ATP, 10 min pre-incubation
[2] = DELFIA, biotinylated GST-ATF2 substrate, 10 minute pre-incubation, final ATP 7 uM
[3] = DELFIA, biotinylated GST-ATF2 substrate, final ATP 2 uM
[4] = DELFIA, biotinylated GST-ATF2 substrate, final ATP 4 uM
[5] = DELFIA assay, 2 nM JNK1, 7 uM ATP, 10 min pre-incubation, second table, read-out: JNK 1 IC50

JNK3, sequence (P53779 whole entry, species assumed): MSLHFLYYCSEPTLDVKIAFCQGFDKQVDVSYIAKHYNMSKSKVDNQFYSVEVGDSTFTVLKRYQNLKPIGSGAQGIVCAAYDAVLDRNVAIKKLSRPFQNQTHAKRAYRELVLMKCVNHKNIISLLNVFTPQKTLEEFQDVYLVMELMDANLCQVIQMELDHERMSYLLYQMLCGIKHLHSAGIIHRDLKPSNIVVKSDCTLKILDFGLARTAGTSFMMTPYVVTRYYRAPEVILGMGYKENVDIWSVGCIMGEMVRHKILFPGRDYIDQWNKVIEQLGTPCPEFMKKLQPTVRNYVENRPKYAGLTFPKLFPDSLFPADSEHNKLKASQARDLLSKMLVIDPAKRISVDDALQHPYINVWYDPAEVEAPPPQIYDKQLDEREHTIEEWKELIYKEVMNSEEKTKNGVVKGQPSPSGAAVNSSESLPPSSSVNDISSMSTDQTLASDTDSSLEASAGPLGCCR

## CC(C)NC(=O)c1cccc(C(=O)NCc2cnn(-c3cccc(C#N)c3)c2)n1 [Compound 134]
JNK3; DELFIA assay
  IC50: 20 nM
JNK1; [1]
  IC50: 15 nM
JNK1; [2]
  IC50: 4 to 19 nM and 4 to 97 nM
JNK2; DELFIA assay
  IC50: 20 nM

## CC(C)NC(=O)c1cccc(C(=O)NCc2cnn(-c3ccc(C#N)cc3)c2)n1 [Compound 135]
JNK3; [3]
  IC50: 16 nM
JNK1; [2]
  IC50: 4 to 97 nM and 27 nM
JNK2; [4]
  IC50: 48 nM

## CC(C)NC(=O)c1cccc(C(=O)NCc2cnn(-c3ccc(S(C)(=O)=O)cc3)c2)n1 [Compound 137]
JNK3; DELFIA assay
  IC50: 12 nM
JNK1; [1]
  IC50: 13 nM
JNK1; [2]
  IC50: 4 to 19 nM and 4 to 97 nM
JNK2; DELFIA assay
  IC50: 3 nM

## CC(C)NC(=O)c1cccc(C(=O)NCc2cnn(-c3cccc(C(F)(F)F)c3)c2)n1 [Compound 140]
JNK3; [3]
  IC50: 9 nM
JNK1; [2]
  IC50: 4 to 19 nM and 4 to 97 nM and 13 nM
JNK2; [4]
  IC50: 11 nM

## CC(C)NC(=O)c1cccc(C(=O)NCc2cnn(-c3ccc4ncccc4c3)c2)n1 [Compound 142]
JNK3; [3]
  IC50: 9 nM
JNK1; [2]
  IC50: 4 to 19 nM and 4 to 97 nM and 6 nM
JNK2; [4]
  IC50: 8 nM

## CC(C)NC(=O)c1cccc(C(=O)NCc2cnn(-c3ccc(S(=O)(=O)N(C)C)cc3)c2)n1 [Compound 152]
JNK3; [3]
  IC50: 9 nM
JNK1; [2]
  IC50: 4 to 19 nM and 4 to 97 nM and 11 nM
JNK2; [4]
  IC50: 8 nM

## CC(C)NC(=O)c1cccc(C(=O)NCc2cnn(-c3cnc4cccnc4c3)c2)n1 [Compound 222]
JNK3; DELFIA assay
  IC50: 10 nM
JNK1; [1]
  IC50: 18 nM
JNK1; [5]
  IC50: 18 nM
JNK1; [2]
  IC50: 4 to 97 nM and 4 to 19 nM
JNK2; DELFIA assay
  IC50: 8 nM

## Cc1nc2ccc(-n3cc(CNC(=O)c4cccc(C(=O)NC(C)C)n4)cn3)cc2n1C [Compound 233]
JNK3; DELFIA assay
  IC50: 12 nM
JNK1; [1]
  IC50: 17 nM
JNK1; [5]
  IC50: 17 nM
JNK1; [2]
  IC50: 4 to 19 nM and 4 to 97 nM
JNK2; DELFIA assay
  IC50: 11 nM

## CCOC(=O)N1CCC(NC(=O)c2cc(-c3cccs3)cc(C(=O)NCc3ccc(S(C)(=O)=O)cc3)n2)CC1 [Compound 414]
JNK1; [2]
  IC50: > 1000 nM and 1030 to 10000 nM

## CCNC(=O)c1cc(-c2cccs2)cc(C(=O)NCc2ccc(S(C)(=O)=O)cc2)n1 [Compound 415]
JNK1; [2]
  IC50: > 1000 nM and 1030 to 10000 nM

## C[C@@H](CO)NC(=O)c1cc(-c2cccs2)cc(C(=O)NCc2ccc(S(C)(=O)=O)cc2)n1 [Compound 416]
JNK1; [2]
  IC50: > 1000 nM and 1030 to 10000 nM

## C[C@H](CO)NC(=O)c1cc(-c2cccs2)cc(C(=O)NCc2ccc(S(C)(=O)=O)cc2)n1 [Compound 417]
JNK1; [2]
  IC50: > 1000 nM and 1030 to 10000 nM

## CC(C)NC(=O)c1cccc(C(=O)NCC2CCN(c3cccc(C#N)c3)CC2)n1 [Compound 419]
JNK1; [2]
  IC50: > 1000 nM and 1030 to 10000 nM

## CC(C)NC(=O)c1cccc(C(=O)NCC2CCN(c3ccc(C#N)cc3)CC2)n1 [Compound 420]
JNK1; [2]
  IC50: > 1000 nM and 1030 to 10000 nM

## CC(C)NC(=O)c1cccc(C(=O)NCC2CCN(c3cccc(S(C)(=O)=O)c3)CC2)n1 [Compound 421]
JNK1; [2]
  IC50: > 1000 nM and 1030 to 10000 nM

## CC(C)NC(=O)c1cccc(C(=O)NCC2CCN(c3ccc(S(C)(=O)=O)cc3)CC2)n1 [Compound 422]
JNK1; [2]
  IC50: > 1000 nM and 1030 to 10000 nM

## Cc1cccc(-n2cc(CNC(=O)c3ccc(F)c(C(=O)NC(C)C)n3)cn2)c1 [Compound 428]
JNK1; [2]
  IC50: 4 to 97 nM

## Cc1cccc(-n2cc(CNC(=O)c3nc(C(=O)NC(C)C)ccc3F)cn2)c1 [Compound 429]
JNK1; [2]
  IC50: 102 to 959 nM

## CC(C)NC(=O)c1cc(O)cc(C(=O)NCc2cnn(-c3ccc4nccnc4c3)c2)n1 [Compound 436]
JNK1; [2]
  IC50: 4 to 97 nM
